Reference: patent publication US20250122167A1, “Pyrazine Compounds Useful in the Treatment of Parasitic Protozoal Infection” (priority 2021, published 2025)
Structures can show the parent of a compound that is named as a salt. Where two headings read alike, the source gives them in different places.

Key:
[1] = test system: P. falciparum 3D7A strain parasitized red blood cells; experiment: P. falciparum growth inhibition assay Sybr Green; assay type: cell-based, Plasmodium falciparum; conditions: for IC50: Plasmodium falciparum, Erythrocyte, 48 h
Description: P. falciparum Growth Inhibition Assay Sybr Green
The parasite growth is determined measuring the staining of the DNA's minor groove with SYBR Green I, which labels the remaining parasites. The DNA-SYBR complex absorbs light reaching the peak at λ=498 nm and emits at a peak of λ=522 nm.
Briefly, a culture of 3D7A strain parasitized red blood cells (RBC) (0.5% parasitemia and 2% haematocrit in RPMI-1640 supplemented with 25 ml albumax and […] hypoxanthine for 500 ml) is exposed to 3-fold serial dilutions of the compound. Plates are incubated 48 h at 37° C., 5% CO2, 5% O2, 90% N2. At 48 h of incubation, SyberGreen I solution (2×) is added and plates are incubated for 30 minutes at 37° C., 5% CO2, 5% O2, 90% N2 and then plates are frozen at −80° C. Then plates are read in the EnVision (EnVision Multilabel Plate Reader, Perkin Elmer). Data (pIC50) are generated by ActivityBase (IDBS) and graphs are checked by Spotfire.
Inhibition of parasite growth in whole cell assay (infected human eritrocites) in vitro is directly linked to reduction of parasitemia in vivo.

[2] = Kinetic aqueous solubility in PBS pH 7.4 (HPLC-CAD); assay type: physicochemical; conditions: PBS pH7.4, room temperature, 1 hour equilibration; for solubility at 1 h / solubility kinetic at 1 h: phosphate buffered saline (PBS), pH 7.4, aqueous buffer, kinetic from dmso stock; for solubility kinetic at 1 h: read-out: Concentration; for Solubility: from DMSO stock
Description: The kinetic aqueous solubility was measured at room temperature after 1 hour equilibration in aqueous phosphate buffered saline (PBS) at pH7.4, and is determined by measuring the concentration of solute in solution after precipitation from DMSO stock solution.
The sample plate was left to equilibrate for 1 hour at room temperature.
Vacuum filtration was applied to filter the solution into a 96-well collection plate.
The filtrate was analysed by HPLC-CAD (Charged Aerosol Detector).
Calibration standards of Ketoconazole and Primidone were prepared by serial dilutions in DMSO at concentrations ranging from 0.016 to 4.5 mg/ml to produce the calibration curve.

[3] = Equilibrium solubility in Fasted State Simulated Intestinal Fluid (FaSSIF); conditions: FaSSIF pH 6.5, room temperature, 4 hour equilibration, dynamic range 1-1000 μg/ml
[4] = test system: Plasmodium falciparum Pf3D7^0087/N9; experiment: P. falciparum in vivo efficacy assay (humanised mouse model); conditions: NODscidIL2Rγ mice engrafted with human erythrocytes; for ED90 mean: parasitemia by microscopy and flow cytometry; for AUCED90 mean: blood exposure (AUC0-23h after first dose) at ED90
Description: Antimalarial in vivo efficacy was determined using the P. falciparum mouse model following the procedure described in: Jimenez-Díaz, M. B., Mulet, T., Viera, S., Gómez, V., Garuti, H., Ibañez, J., Alvarez-Doval, A., Shlutz, D. L., Martinez, A., Improved Murine Model Of Malaria Using Plasmodium falciparum (Competent Strains and Non-Myelodepleted NOD-scid IL2R_null Mice Engrafted with Human Erythrocytes) Antimicrob. Agents Chemother 2009, 53 (10), 4533-4536.
The goal of the study was to assess the therapeutic efficacy of the examples against Plasmodium falciparum Pf3D7^0087/N9 growing in peripheral blood of NODscidIL2Ry^0087/N9 mice engrafted with human erythrocytes. The levels of the examples were measured in serial peripheral blood samples obtained from each mouse of the efficacy experiment during the first 23 hrs after the first dose. The area under the curve of levels of compound is used to estimate the exposure in blood during the first 23 hours after the first administration (AUC0-23h).
The effect of Examples 1, 2, 5, 7, 8 and 10 on P. Falciparum Pf3D7^0087/N9 was assessed by microscopy and flow cytometry.

physchem = conditions: Fasted State Simulated Intestinal Fluid (FaSSIF), pH 6.5, fassif, thermodynamic from solid
[5] = average, 48 h incubation, SYBR Green I readout, ditrifluoroacetic acid salt
[6] = range of values, 48 h incubation, SYBR Green I readout, ditrifluoroacetic acid salt
[7] = average, 48 h incubation, SYBR Green I readout, dihydrochloride
[8] = range of values, 48 h incubation, SYBR Green I readout, dihydrochloride
[9] = average, 48 h incubation, SYBR Green I readout, read-out: Average value pIC50 (converted)
[10] = range of values, 48 h incubation, SYBR Green I readout, read-out: Pf3D7 pIC50 (converted)
[11] = read-out: Average value pIC50, average (converted), 48 h incubation, SYBR Green I readout
[12] = read-out: Pf3D7 pIC50, range of values (converted), 48 h incubation, SYBR Green I readout

For NC1(CNC(=O)c2ccc(-c3cncc(-c4cncc(F)c4)n3)cc2)CCC1 [Example 1, N-((1-aminocyclobutyl)methyl)-4-(6-(5-fluoropyridin-3-yl)pyrazin-2-yl)benzamide, ditrifluoroacetic acid salt], the “Average value pIC50” value [1, 5] was 8.50, the “Pf3D7 pIC50” value [1, 6] was 8.48-8.60 and the solubility at 1 h [2] was at least 124 µg/mL. It also gave a solubility kinetic at 1 h [2] of at least 329 mM, a FaSSIF solubility ([3]; ditrifluoroacetic acid salt) of 429 µg/mL and an ED90 mean ([4]; ditrifluoroacetic acid salt) of 1.28 mg/kg. The AUCED90 mean ([4]; ditrifluoroacetic acid salt) was 0.067 mg · h · mL^−1 · day^−1.

For NC1(CNC(=O)c2ccc(-c3cncc(-c4cncc(F)c4)n3)cc2)CCC1 [Example 2, N-((1-aminocyclobutyl)methyl)-4-(6-(5-fluoropyridin-3-yl)pyrazin-2-yl)benzamide, dihydrochloride], the “Average value pIC50” value [1, 7] was 8.50, the “Pf3D7 pIC50” value [1, 8] was 8.47-8.63 and the solubility at 1 h [2] was at least 126 µg/mL. The solubility kinetic at 1 h [2] was at least 335 mM, the solubility at 4 h (physchem) was 398 µg/mL and the ED90 mean ([4]; dihydrochloride) was 1.14 mg/kg. For the same molecule, the AUCED90 mean ([4]; dihydrochloride) was 0.121 mg · h · mL^−1 · day^−1.

Molecule NC1(CNC(=O)c2ccc(-c3cncc(-c4cncc(F)c4)n3)cc2)CCC1 [Example 3, N-((1-aminocyclobutyl)methyl)-4-(6-(5-fluoropyridin-3-yl)pyrazin-2-yl)benzamide, sulfuric acid salt] has an IC50 [1, 9] of 3.16 nM, an IC50 [1, 10] of 2.51 to 5.01 nM and a Solubility [2] of at least 94.7 µg/mL.

With NC1(CNC(=O)c2ccc(-c3cncc(-c4cncc(F)c4)n3)cc2)CCC1 [Example 4, N-((1-aminocyclobutyl)methyl)-4-(6-(5-fluoropyridin-3-yl)pyrazin-2-yl)benzamide] the “Average value pIC50” value ([1]; average, 48 h incubation, SYBR Green I readout) was 8.60, the “Pf3D7 pIC50” value ([1]; range of values, 48 h incubation, SYBR Green I readout) was 8.54-8.76 and the Solubility [2] was at least 129.8 µg/mL. For the same molecule, the FaSSIF solubility [3] was over 1000 µg/mL.

NC1(CNC(=O)c2ccc(-c3cncc(-c4cncc(F)c4)n3)cc2)CC1 [Example 5, N-((1-aminocyclopropyl)methyl)-4-(6-(5-fluoropyridin-3-yl)pyrazin-2-yl)benzamide, dihydrochloride] gave an IC50 [1, 11] of 3.16 nM, an IC50 [1, 12] of 2.51 to 4.57 nM and a solubility at 1 h [2] of at least 114 µg/mL. The solubility kinetic at 1 h [2] was at least 313 mM, the FaSSIF solubility ([3]; dihydrochloride) was 380 µg/mL and the ED90 mean [4] was 1.04 mg/kg. The AUCED90 mean [4] was 0.13 mg · h · mL^−1 · day^−1.

For NC1(CNC(=O)c2ccc(-c3cncc(-c4cncc(F)c4)n3)cc2)CC1 [Example 6, N-((1-aminocyclopropyl)methyl)-4-(6-(5-fluoropyridin-3-yl)pyrazin-2-yl)benzamide, ditrifluoroacetic acid salt], the solubility at 1 h [2] was at least 200 µg/mL, the solubility kinetic at 1 h [2] was at least 549 mM and the solubility at 4 h (physchem) was 339 µg/mL.

CC(C)(N)CNC(=O)c1ccc(-c2cncc(-c3cncc(F)c3)n2)cc1 [Example 7, N-(2-amino-2-methylpropyl)-4-(6-(5-fluoropyridin-3-yl)pyrazin-2-yl)benzamide, ditrifluoroacetic acid salt] gave an IC50 [1, 11] of 7.94 nM, an IC50 [1, 12] of 7.08 to 8.91 nM and a solubility at 1 h [2] of at least 84.4 µg/mL. For the same molecule, the solubility kinetic at 1 h [2] was at least 231 mM, the solubility at 4 h (physchem) was 742 µg/mL and the ED90 mean [4] was 1.74 mg/kg. It also gave an AUCED90 mean [4] of 0.05 mg · h · mL^−1 · day^−1.

With N[C@@H]1CCCC[C@@H]1NC(=O)c1ccc(-c2cncc(-c3cncc(F)c3)n2)cc1 [Example 8, N-((1S,2R)-2-aminocyclohexyl)-4-(6-(5-fluoropyridin-3-yl)pyrazin-2-yl)benzamide, dihydrochloride] the “Average value pIC50” value [1, 7] was 8.40, the “Pf3D7 pIC50” value [1, 8] was 8.33-8.6 and the solubility at 1 h [2] was at least 106 µg/mL. It also gave a solubility kinetic at 1 h [2] of at least 271 mM, a FaSSIF solubility ([3]; dihydrochloride) of over 1000 µg/mL and an ED90 mean ([4]; dihydrochloride) of 1.59 mg/kg. The AUCED90 mean ([4]; dihydrochloride) was 0.26 mg · h · mL^−1 · day^−1.

For N[C@@H]1CCCC[C@@H]1NC(=O)c1ccc(-c2cncc(-c3cncc(F)c3)n2)cc1 [Example 9, N-((1S,2R)-2-aminocyclohexyl)-4-(6-(5-fluoropyridin-3-yl)pyrazin-2-yl)benzamide, ditrifluoroacetic acid salt], the “Average value pIC50” value [1, 5] was 8.60, the “Pf3D7 pIC50” value [1, 6] was 8.53-8.60 and the solubility at 1 h [2] was 115 µg/mL. For the same molecule, the solubility kinetic at 1 h [2] was 293 mM and the solubility at 4 h (physchem) was 789 µg/mL.

N[C@@H]1CCCC[C@@H]1NC(=O)c1ccc(-c2cncc(-c3cncc(F)c3)n2)cc1 [Example 10, N-((1S,2R)-2-aminocyclohexyl)-4-(6-(5-fluoropyridin-3-yl)pyrazin-2-yl)benzamide] gave an IC50 [1, 9] of 3.16 nM, an IC50 [1, 10] of 3.09 to 3.8 nM and a Solubility [2] of at least 136.2 µg/mL. For the same molecule, the FaSSIF solubility [3] was 941 µg/mL, the ED90 mean [4] was 0.95 mg/kg and the AUCED90 mean [4] was 0.20 mg · h · mL^−1 · day^−1.
